For assay [1], the target named is P-selectin. In words: Inhibition of P-selectin binding to GlyCAM-1 (ELISA with P-selectin-IgG chimera). How it is done:
(§1) The CAMO2 antibody is diluted to a concentration of 1.6 μg/ml in PBS with 0.1% NaN3, and 100 μl of this solution is dispensed into each well of a 96-well plate. The plate is incubated overnight at 4° C. to allow adsorption of the antibody onto the solid support. The plate is then washed three times with PBS containing 0.1% tween, and blocked with 200 μl/well of a 3% solution of BSA in PBS for 2 hours at room temperature.
(§2) A crude GlyCAM-1 preparation is produced by extracting mouse serum with chloroform/methanol solution, followed by dialysis against PBS. After removing the blocking solution, 100 μl of this solution is dispensed into each well, and the plate is incubated for 1 hour at room temperature.
Chimeric molecules of the invention and more specifically, complexes of P-selection with a secondary antibody and streptavidin-alkaline phosphates are formed as follows:
4 μg/ml P-selectin-IgG chimera
(§3) 2/1000 dilution of biotinylated goat anti-human Fc F(ab')2 (Caltag)
(§4) 2/1000 dilution of streptavidin-alkaline phosphatase (Caltag)
(§5) In PBS with 0.2% BSA and 5% normal rabbit serum
(§6) Assays as per Example 1-3 were used to determine IC50 's for the inhibition of L-, P- or E-selectin binding to GlyCAM-1 for a number of compounds.

The target of assay [2] is L-selectin. Kind of assay: Inhibition of L-selectin binding to GlyCAM-1 (ELISA with L-selectin-IgG chimera). The conditions noted are these: for Interaction of L-selectin with GlyCAM-1: FIG. 6, result in words. How it is done:
as §1, §2
Chimeric molecules of the invention and more specifically, complexes of L-selectin with a secondary antibody and streptavidin-alkaline phosphates are formed as follows:
2 mg/ml L-selectin-IgG chimera
as §3, §4
In PBS with 2% BSA and 5% normal rabbit serum
In a separate 96-well plate, 80 μl of serial dilutions of the test inhibitors dissolved in PBS are dispensed into each well. To each inhibitor-containing well is added 80 μl of the selectin-IgG/antibody/streptavidin-alkaline phosphatase complex solution. The plate is then incubated for 30 minutes at 4° C.
The plate containing CAMO2 antibody and captured GlyCAM-1 is washed three times with PBS/0.1% TWEEN detergent, and […] of each selectin complex/inhibitor mixture is transferred to the wells of the GlyCAM-containing plate. This plate is then incubated for 30 minutes at room temperature.
Finally, the solutions are removed from the GlyCAM-1 plate and the plate is washed three times with PBS/0.1% TWEEN detergent. […] of alkaline phosphatase substrate solution (p-nitrophenyl phosphate in ethanolamine/MgCl2) buffer is added to each well to detect the presence of bound selectin complex and the plate is quantified with a 96-well plate reader at 405 nm.
A general note: An ELISA detects its analyte on a solid surface through an enzyme-linked reagent.

Assay [3] has as its target E-selectin. In words: Inhibition of E-selectin binding to GlyCAM-1 (ELISA with E-selectin-IgG chimera). Here is the method:
as §1, §2
Chimeric molecules of the invention and more specifically, complexes of E-selection with a secondary antibody and streptavidin-alkaline phosphates are formed as follows:
4 μg/ml E-selectin-IgG chimera
as §3, §4, §5, §6

For assay [4], the system named is lymphocyte attachment to HEV. The note with it: literature; cited from earlier work.
The target in assay [5] is T1, L-selectin (Homo sapiens, UniProt P14151).
T1 sequence (P14151 39-372): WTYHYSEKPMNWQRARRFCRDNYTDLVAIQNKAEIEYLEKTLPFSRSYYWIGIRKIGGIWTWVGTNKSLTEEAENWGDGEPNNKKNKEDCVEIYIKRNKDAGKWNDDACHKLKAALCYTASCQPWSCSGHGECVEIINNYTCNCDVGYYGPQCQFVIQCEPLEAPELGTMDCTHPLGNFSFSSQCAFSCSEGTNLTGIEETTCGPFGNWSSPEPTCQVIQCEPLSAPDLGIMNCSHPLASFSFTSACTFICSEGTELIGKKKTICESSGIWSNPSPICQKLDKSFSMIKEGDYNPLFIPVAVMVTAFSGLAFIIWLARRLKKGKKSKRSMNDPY
The note with it: without sulfate; cited from earlier work.

Assay [6] has as its system L-selectin, P-selectin and E-selectin. Kind of assay: Binding of serum GlyCAM-1 to each of the different selectins. The note with it: Ig chimeras of the three selectins. The text has this:
(See FIG. 5). […] These specific conditions are described in detail in Examples 1-3.

Turning to 3'-sulfo Lewis a, the IC50 in assay [1] came to 0.14 mM; in assay [2] (L-selectin), 1.7 mM; in assay [3], 4 mM.
As for `O=S(=O)(O)OC[C@H]1O[C@@H](O[C@H]2[C@H](O)[C@@H](O)C(O)O[C@@H]2CO)[C@H](O)[C@@H](OS(=O)(=O)O)[C@H]1OS(=O)(=O)O` (stereo partly drawn) [3',4',6'-trisulfo lactose], in assay [2] (L-selectin), the half-maximal inhibitory concentration (IC50) was 0.2 mM.
On to `O=S(=O)(O)OC[C@H]1O[C@@H](O[C@H]2[C@H](O)[C@@H](O)C(O)O[C@@H]2CO)[C@H](O)[C@@H](OS(=O)(=O)O)[C@H]1O` (stereo partly drawn) [3',6'-disulfo lactose], for which, in assay [2] (L-selectin), the IC50 stood at 0.4 mM.
With `CC(=O)N[C@H]1C(O)O[C@H](CO)[C@@H](O[C@@H]2O[C@H](CO)[C@H](O)[C@H](OS(=O)(=O)O)[C@H]2O)[C@@H]1O[C@@H]1O[C@@H](C)[C@@H](O)[C@@H](O)[C@@H]1O` (stereo partly drawn) [3'-sulfo Lewis x], the IC50 in assay [1] worked out at 3 mM; in assay [2] (L-selectin) it was 3 mM; in assay [3] it was 4 mM.
The molecule `O=S(=O)(O)OC[C@H]1O[C@@H](O[C@H]2[C@H](O)[C@@H](O)C(O)O[C@@H]2CO)[C@H](O)[C@@H](O)[C@H]1O` (stereo partly drawn) [6'-sulfo lactose] had an IC50 in assay [2] (L-selectin) of 10 mM.
As for `O=C(O)CN(CCN(CC(=O)O)CC(=O)O)CC(=O)O` [EDTA], the “Interaction of L-selectin with GlyCAM-1” value in assay [2] is “inhibited”.
As to `O=P(O)(O)OC[C@H]1OC(O)[C@@H](O)[C@@H](O)[C@@H]1O` (stereo partly drawn) [mannose-6-phosphate], the “Lymphocyte attachment to HEV” value in assay [4] is listed as “prevent lymphocyte attachment to HEV”. In addition, the “Interaction of L-selectin with GlyCAM-1” value in assay [2] was “inhibited”. For the same molecule, the IC50 in assay [2] (L-selectin) was determined as 1.5 mM.
`O=P(O)(O)O[C@H]1[C@H](OP(=O)(O)O)[C@@H](OP(=O)(O)O)[C@H](OP(=O)(O)O)[C@@H](OP(=O)(O)O)[C@H]1OP(=O)(O)O` [phytic acid]: the values for the IC50 in assay [1] and in assay [2] (L-selectin) were 0.0002 mM and 0.002 mM, respectively.
fucoidan: the “IC50 for the inhibition of P-selectin binding to GlyCAM-1” value in assay [1] stood at 0.02 µg/mL. In addition, the “Lymphocyte attachment to HEV” value in assay [4] is “active”. Also, in assay [2], the “Interaction of L-selectin with GlyCAM-1” value is on record as “inhibited”. Moreover, in assay [2] (L-selectin), the “IC50 for the inhibition of L-selectin binding to GlyCAM-1” value was 0.2 µg/mL.
On to sialyl Lewis^x oligosaccharide [sLe^x], for which the “Affinity for L-selectin” value in assay [5] is reported as “very low affinity”.

B1: GlyCAM-1: a sulfated, fucosylated and sialylated glycoprotein of about 50 kd now termed GlyCAM-1 (protein, UniProt Q02596 20-151, looked up)
Glycosylation-dependent cell …: LPGSKDELQMKTQPTDAIPAAQSTPTSYTSEESTSSKDLSKEPSIFREELISKDNVVIESTKPENQEAQDGLRSGSSQLEETTRPTTSAATTSEENLTKSSQTVEEELGKIIEGFVTGAEDIISGASRITKS
For the molecule B1, the “Binding of serum GlyCAM-1 to the selectins” value in assay [6] is “will bind to each of the different selectins”.

Broadly, the IC50 is the concentration that inhibits the measured activity by half. Lower therefore signals greater potency.

The record behind these values is patent US5972625A, “Assays for inhibitors of leukocyte adhesion” (The Regents of the University of California, priority 1997, dated 1999).
